Consider 23 compounds from patent US11999746B2, “Compounds” (GlaxoSmithKline Intellectual Property Development Limited, priority 2014, dated 2024).

The target of experiment [1] is T1, Lp-PLA2 in human plasma (Homo sapiens, UniProt Q13093).
T1 construct: from tissue; host or cells: pooled human plasma
T1 sequence (Q13093 22-441): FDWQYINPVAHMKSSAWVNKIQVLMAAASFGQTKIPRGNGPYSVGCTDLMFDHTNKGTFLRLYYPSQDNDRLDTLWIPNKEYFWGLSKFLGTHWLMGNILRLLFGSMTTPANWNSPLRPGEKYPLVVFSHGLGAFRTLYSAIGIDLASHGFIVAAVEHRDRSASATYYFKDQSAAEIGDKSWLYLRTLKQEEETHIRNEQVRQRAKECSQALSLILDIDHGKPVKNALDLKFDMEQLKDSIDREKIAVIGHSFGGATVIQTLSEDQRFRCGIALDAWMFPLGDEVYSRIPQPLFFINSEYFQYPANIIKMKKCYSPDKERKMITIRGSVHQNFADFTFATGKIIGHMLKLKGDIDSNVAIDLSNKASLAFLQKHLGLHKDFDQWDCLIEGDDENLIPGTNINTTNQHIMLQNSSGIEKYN
The experiment in a line: (3a) Lp-PLA2 human plasma Thio-PAF assay. The format is biochemical. As to conditions: (3a) Thio-PAF assay, pooled human plasma; Examples 1-265 and 413-430 were tested here; read-out: pIC50 in the Lp-PLA2 human plasma assay (converted). The procedure, abridged:
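Pooled human plasma preincubated 30 min with serially diluted compound, then given 2-thio-PAF substrate with CPM and NEM in 50 mM HEPES pH 7.4, 150 mM NaCl, 1 mM CHAPS. Reaction quenched with TFA after 2 min; CPM thiol-adduct fluorescence read at ex 380/em 485 after 40 min; pIC50 reported.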

The target of experiment [2] is T2, recombinant human Lp-PLA2 (Homo sapiens, UniProt Q13093).
T2 sequence (Q13093 22-441): T1 sequence (Q13093 22-441)
The experiment in a line: (1a) PED6 assay, recombinant human Lp-PLA2 (rhLp-PLA2). As to conditions: Examples 1-167 and 413-430 were tested here, one experiment or average of multiple experiments, read-out: rhLp-PLA2 (pIC50) (converted). In kind it is biochemical. The procedure, abridged:
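PED6 (2 μM final after 1:1 addition of 4 μM stock) cleavage by rhLp-PLA2 (4 nM working solution) in 50 mM HEPES pH 7.4, 150 mM NaCl, 1 mM CHAPS; compounds preincubated with enzyme 30 minutes, reaction 20 min at room temperature. Fluorescence at ex 480/em 540; pIC50 from curve fit.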

`O=c1nc(OCc2cccc(F)c2F)cc2n1C[C@H]1CCCN21` [Example E101, (R)-3-((2,3-difluorobenzyl)oxy)-7,8,8a, 9-tetrahydropyrrolo[1′, 2′:3, 4]imidazo[1,2-c] pyrimidin-1(6H)-one]: the values for the IC50 in experiment [1] and in experiment [2] were ≤ 10000 nM and ≤ 100 nM, respectively.

Consider `O=c1nc(OCc2ccc(Oc3ccnc(C(F)(F)F)c3)c(F)c2)cc2n1CC1CCCCN21` (stereo not shown) [Example E17, 3-((3-Fluoro-4-((2-(trifluoromethyl)pyridin-4-yl)oxy)benzyl)oxy)-6,7,8,9,9a,10-hexahydro-1H-pyrido[1′,2′:3,4]imidazo[1,2-c]pyrimidin-1-one], for which the IC50 in experiment [1] is ≤ 100 nM; in experiment [2], ≤ 1 nM.

Turning to `N#Cc1cc(COc2cc3n(c(=O)n2)C[C@@H]2CCCN32)ccc1Oc1cccc(F)c1` [Example E86, (S)-2-(3-fluorophenoxy)-5-(((1-oxo-1,6,7,8,8a,9-hexahydropyrrolo[1′,2′:3,4]imidazo[1,2-c]pyrimidin-3-yl)oxy)methyl)benzonitrile], the figures for the IC50 in experiment [1] and in experiment [2] were ≤ 10000 nM and ≤ 100 nM, respectively.

Consider `O=c1nc(OCc2cc(F)c(Oc3cccc(C(F)(F)F)c3)c(F)c2)cc2n1C[C@@H]1CCCN21` [Example E83, (S)-3-((3,5-difluoro-4-(3-(trifluoromethyl)phenoxy)benzyl)oxy)-7,8,8a,9-tetrahydropyrrolo[1′,2′:3, 4]imidazo[1,2-c]pyrimidin-1(6H)-one], for which the IC50 in experiment [1] is ≤ 100 nM; in experiment [2], ≤ 1 nM.

Turning to `O=c1nc(OCc2ccc(F)c(Cl)c2)cc2n1CC1CCCCN21` (stereo not shown) [Example E27, 3-((3-Chloro-4-fluorobenzyl)oxy)-6,7,8,9,9a,10-hexahydro-1H-pyrido[1′,2′:3,4]imidazo[1,2 c]pyrimidin-1-one], the values for the IC50 in experiment [1] and in experiment [2] were ≤ 10000 nM and ≤ 100 nM, respectively.

For the compound `O=c1nc(OCc2cccc(F)c2F)cc2n1C[C@H]1COCCN21` [Example E127, (S)-7-((2,3-difluorobenzyl)oxy)-3,4,11,11a-tetrahydropyrimido[6′,1′:2,3]imidazo[5,1-c][1,4] oxazin-9(1H)-one], the IC50 in experiment [1] and in experiment [2] was ≤ 100 nM in each case.

On to `CCn1cc(Oc2c(F)cc(COc3cc4n(c(=O)n3)CC3COCCN43)cc2F)cn1` (stereo not shown) [Example E109, 7-((4-((1-Ethyl-1H-pyrazol-4-yl)oxy)-3,5-difluorobenzyl)oxy)-3,4,11,11a-tetrahydropyrimido[6′,1′:2,3]imidazo[5,1-c][1,4]oxazin-9(1H)-one], for which the IC50 in experiment [1] is ≤ 100 nM; in experiment [2], 1.26 nM.

Turning to `O=c1nc(OCc2ccc(Oc3cnc(C(F)(F)F)nc3)c(F)c2)cc2n1C[C@H]1CCCN21` [Example E69, (R)-3-((3-fluoro-4-((2-(trifluoromethyl)pyrimidin-5-yl)oxy)benzyl)oxy)-7,8,8a, 9-tetra hydropyrrolo[1′,2′:3,4]imidazo[1,2-c]pyrimidin-1(6H)-one], the IC50 in experiment [1] and in experiment [2] was ≤ 100 nM throughout.

Consider `O=c1nc(OCc2ccc(F)cc2F)cc2n1C[C@H]1CCCN21` [Example E100, (R)-3-((2,4-difluorobenzyl)oxy)-7,8,8a,9-tetrahydropyrrolo[1,2′:3,4]imidazo[1,2-c] pyrimidin-1(6H)-one], for which the results for the IC50 in experiment [1] and in experiment [2] were ≤ 10000 nM and ≤ 100 nM, respectively.

Consider `CN1c2cc(OCc3cc(F)c(F)cc3F)nc(=O)n2CC12CCC2` [Example 429, 1-methyl-7′-((2,4,5-trifluorobenzyl)oxy)-1′H-spiro[cyclobutane-1,2′-imidazo[1,2-c]pyrimidin]-5′(3′H)-one], for which the figures for the IC50 in experiment [1] and in experiment [2] were ≤ 10000 nM and ≤ 100 nM, respectively.

With `Cn1cc(Oc2c(F)cc(COc3cc4n(c(=O)n3)C[C@@H]3CCOCN43)cc2F)cn1` [Example E136, (S)-3-((3,5-difluoro-4-((1-methyl-1H-pyrazol-4-yl)oxy)benzyl)oxy)-8,9,9a,10-tetrahydropyrimdo[6′,1′:2,3]imidazo[1,5-c][1,3]oxazin-1(6H)-one], the IC50 in experiment [1] was ≤ 10000 nM; in experiment [2] it was ≤ 100 nM.

For the compound `O=c1nc(OCc2ccc(Oc3ccnc(C(F)(F)F)c3)c(F)c2)cc2n1C[C@@H]1CCCCN21` [Example E40, (S)-3-((3-Fluoro-4-((2-(trifluoromethyl)pyridin-4-yl)oxy)benzyl)oxy)-6,7,8,9,9a,10-hexahydro-1H-pyrido[1′,2′:3,4]imidazo[1,2-c]pyrimidin-1-one], the IC50 was ≤ 100 nM in experiment [1] and ≤ 1 nM in experiment [2].

Consider `Cc1ccc(Oc2c(F)cc(COc3cc4n(c(=O)n3)C[C@H]3COCCN43)cc2F)cn1` [Example E125, (S)-7-((3,5-difluoro-4-((6-methylpyridin-3-yl)oxy)benzyl)oxy)-3,4,11,11atetrahydropyrimido[6′,1′:2,3]imidazo[5,1-c][1,4]oxazin-9(1H)-one], for which the IC50 was ≤ 100 nM in experiment [1] and 0.0631 nM in experiment [2].

For `O=c1nc(OCc2cc(F)cc(F)c2)cc2n1C[C@H]1CCCCN21` [Example E53, (R)-3-((3,5-Difluorobenzyl)oxy)-6,7,8,9,9a,10-hexahydro-1H-pyrido[1′,2′:3,4]imidazo[1,2-c] pyrimidin-1-one], the IC50 in experiment [1] is ≤ 10000 nM; in experiment [2], ≤ 100 nM.

`O=c1nc(OCc2cc(F)c(Oc3ccnc(C(F)(F)F)c3)c(F)c2)cc2n1C[C@@H]1COCCN21` [Example E119, (R)-7-((3,5-difluoro-4-((2-(trifluoromethyl)pyridin-4-yl)oxy)benzyl)oxy)-3,4, 11, 11a-tetra hydropyrimido[6′,1′:2,3]imidazo[5,1-c][1,4]oxazin-9(1H)-one]: the IC50 in experiment [1] was ≤ 100 nM; in experiment [2], ≤ 1 nM.

Turning to `Cn1cc(Oc2c(F)cc(COc3cc4n(c(=O)n3)C[C@H]3CCCN43)cc2F)cn1` [Example E66, (R)-3-((3,5-difluoro-4-((1-methyl-1H-pyrazol-4-yl)oxy)benzyl)oxy)-7,8,8a, 9-tetrahydro pyrrolo[1′,2′:3,4]imidazo[1,2-c]pyrimidin-1(6H)-one], the results for the IC50 in experiment [1] and in experiment [2] were ≤ 10000 nM and ≤ 100 nM, respectively.

Consider `O=c1nc(OCc2cc(F)c(F)c(F)c2)cc2n1C[C@H]1CCCCN21` [Example E54, (R)-3-((3,4,5-Trifluorobenzyl)oxy)-6,7,8,9,9a,10-hexahydro-1H-pyrido[1′,2′:3,4]imidazo[1,2-c]pyrimidin-1-one], for which the IC50 in experiment [1] and in experiment [2] was ≤ 100 nM in each case.

Turning to `O=c1nc(OCc2cc(F)c(Oc3ccnc(C(F)(F)F)c3)c(F)c2)cc2n1C[C@H]1CCOCN21` [Example E135, (R)-3-((3,5-difluoro-4-((2-(trifluoromethyl)pyridin-4-yl)oxy)benzyl)oxy)-8,9,9a,10-tetrahydropyrimido[6′,1′:2,3]imidazo[1,5-c][1,3]oxazin-1(6H)-one], the IC50 in experiment [1] is ≤ 100 nM; in experiment [2] it was ≤ 1 nM.

Take `O=c1nc(OCc2cc(F)c(Oc3ccc(C(F)(F)F)nc3)c(F)c2)cc2n1C[C@H]1CCCN21` [Example E79, (R)-3-((3,5-difluoro-4-((6-(trifluoromethyl)pyridin-3-yl)oxy)benzyl)oxy)-7,8,8a,9-tetrahydro pyrrolo[1′,2′:3,4]imidazo[1,2-c]pyrimidin-1(6H)-one]: the IC50 in experiment [1] was ≤ 100 nM; in experiment [2], ≤ 1 nM.

For `O=c1nc(OCc2cc(F)cc(F)c2)cc2n1C[C@@H]1COCCN21` [Example E133, (R)-7-((3,5-difluorobenzyl)oxy)-3,4,11,11a-tetrahydropyrimido[6′,1′:2,3]imidazo[5,1-c][1,4] oxazin-9(1H)-one], the IC50 in experiment [1] is ≤ 10000 nM; in experiment [2], ≤ 100 nM.

Take `Cn1cc(Oc2c(F)cc(COc3cc4n(c(=O)n3)C[C@@H]3COCCN43)cc2F)cn1` [Example E120, (R)-7-((3,5-difluoro-4-((1-methyl-1H-pyrazol-4-yl)oxy)benzyl)oxy)-3,4,11,11a-tetrahydropyrimido[6′,1′:2,3]imidazo[5,1-c][1,4]oxazin-9(1H)-one]: the values for the IC50 in experiment [1] and in experiment [2] were ≤ 10000 nM and ≤ 100 nM, respectively.

For `O=c1nc(OCc2cc(F)c(F)c(F)c2)cc2n1C[C@H]1COCN21` [Example E146, (S)-6-((3,4,5-trifluorobenzyl)oxy)-10,10a-dihydro-1H-oxazolo[3′,4′:3,4]imidazo[1,2-c] pyrimidin-8(3H)-one], the IC50 in experiment [1] and in experiment [2] was ≤ 100 nM throughout.

`O=c1nc(OCc2ccc(Oc3cncc(C(F)(F)F)c3)c(F)c2)cc2n1CC1CCCCN21` (stereo not shown) [Example E47, 3-((3-Fluoro-4-((5-(trifluoromethyl)pyridin-3-yl)oxy)benzyl)oxy)-6,7,8,9,9a,10-hexahydro-1H-pyrido[1′,2′:3,4]imidazo[1,2-c]pyrimidin-1-one]: the figures for the IC50 in experiment [1] and in experiment [2] were ≤ 100 nM and ≤ 1 nM, respectively.
